Source: patent US20180140609A1, “USE OF (4-HYDROXY-2-METHYL-1,1-DIOXIDO-2H-BENZO[E][1,2]THIAZINE-3-YL)(NAPHTHALENE-2-YL) METHANONE IN THE PREVENTION AND/OR TREATMENT OF NON-ALCOHOLIC STEATOHEPATITIS” (PIERRE FABRE MEDICAMENT, priority 2015, published 2018)
Read-outs that look alike come from different tables or passages of the source.

Legend:
Assay type in all cases: in vivo
human 11β-HSD type 1 [1] = molecular target: T1, human 11β-HSD type 1 (Homo sapiens, UniProt P28845); experiment: Plasma bioactivity after single oral administration in C57BL/6N mice, read as inhibition of human 11β-HSD type 1 (SPA); settings: for inhibition at 2.5 mg/kg: 2.5 mg/kg oral; for inhibition at 2.5 mg/kg / inhibition at 10 mg/kg: table with plasma levels; for inhibition at 10 mg/kg: 10 mg/kg oral
T1 sequence (P28845 whole entry): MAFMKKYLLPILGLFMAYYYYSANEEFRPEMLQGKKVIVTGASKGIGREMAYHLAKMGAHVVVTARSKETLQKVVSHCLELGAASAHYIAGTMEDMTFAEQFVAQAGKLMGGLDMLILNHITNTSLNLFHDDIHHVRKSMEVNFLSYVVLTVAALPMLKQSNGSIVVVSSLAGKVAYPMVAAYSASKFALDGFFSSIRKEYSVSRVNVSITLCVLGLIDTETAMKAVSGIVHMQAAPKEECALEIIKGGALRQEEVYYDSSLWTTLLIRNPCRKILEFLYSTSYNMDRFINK
Method: (§1) The evaluation is made in on 4- to 6-week-old non-fasted male C57BL/6N strain mice. The compounds to be tested or the vehicle (0.5% methylcellulose in water, at 10 ml/kg) are administered orally; n=3 mice per treatment.
(§2) Blood samples are collected 1 h and 4 h after administration; the tubes are centrifuged to obtain plasma and frozen at −70° C. until bioanalysis. Plasma bioactivity (2% final volume) is analyzed by using the inhibition of human 11β-HSD type 1 as a detection system (SPA technology) for each compound at each dose tested. Percent inhibition (versus mice treated with carrier) is calculated for each dose.

[2] = Plasma level by LC/MS after single oral administration in C57BL/6N mice; settings: parent molecule by LC/MS
Method: as §1, §2
Compound 1 is detected in the plasma of the treated mice and inhibits 11β-HSD type 1 as of 0.63 mg/kg. LC/MS analyses of plasma samples from the animals treated with Compound 1K show a much higher plasma level of the parent molecule than that found for Compound 1.

human 11β-HSD type 1 [3] = molecular target: T1, human 11β-HSD type 1; experiment: Bioactivity of inguinal white adipose tissue after single oral administration in C57BL/6N mice, read as inhibition of human 11β-HSD type 1 (SPA); settings: mouse inguinal white adipose tissue extract
Method: Four hours post-administration, the mice are euthanized and inguinal white adipose tissue is taken and frozen at −70° C. until the day of bioanalyses. The white adipose tissue is homogenized in liquid nitrogen and then treated with acetonitrile (1 ml of distilled water for 4 ml of acetonitrile and 200 mg of inguinal white adipose tissue) to extract soluble substances. The acetonitrile fraction is collected, then dried, and the residue is dissolved in 1 ml of DMSO for 300 mg of white adipose tissue.
Compounds tested: the same as those of Example 2.

11β-HSD type 1 = experiment: Inhibition of conversion of prednisone to prednisolone after single administration to cynomolgus monkeys; settings: for inhibition of the prednisolone/prednisone ratio in animals that respond favorably: responders only; for inhibition of plasma prednisolone/prednisone ratio of AUC (30 minutes to 4 hours): prednisone 10 mg/kg 2 h later
Method: The protocol used is described by Bhat et al. (J. Pharmacol. Exp. Ther. 324, 299-305, 2008).
(§3) Briefly, the study is carried out in naive adult male cynomolgus monkeys fasted overnight. The 11β-HSD type 1 inhibitor or its vehicle (0.5% methylcellulose in water) is administered via nasogastric intubation. Two hours later, a challenge with orally administered prednisone (10 mg/kg) is performed and blood samples are taken regularly for 24 hours. These samples are centrifuged to obtain plasma and immediately frozen at −70° C. until bioanalysis. Plasma levels of prednisone, prednisolone and 11β-HSD type 1 inhibitors are measured by LC-MS/MS analytical methods.
(§4) The study is carried out over a period of 10 weeks. Profiles of plasma concentration as a function of time and areas under the curve are calculated using the trapezoidal method for all parameters.
The effect of Compound 1 is evaluated at three doses: 1.25, 5 and 20 mg/kg.
The effect of Compound 1K is evaluated at three doses: 20, 40 and 80 mg/kg. The protocol is quite similar to the preceding, except that only 5 blood samples were taken per monkey rather than 7. Compound 1K was also evaluated over a period of 10 weeks.
The 11β-HSD type 1 activity-dependent conversion of prednisone to prednisolone was evaluated. Compound 2K inhibits roughly 50% this activity at a dose of 20 mg/kg (FIG. 2A). FIG. 2 represents the effects of Compound 2K, at the three doses tested, on plasma prednisolone/prednisone ratio calculated with the area under the curve between 30 minutes and 4 hours (panel A) and on plasma exposure during the 6-hour experimental period (panel B); the results obtained with Compound 1K at a dose of 5 mg/kg are compared in the two panels.

[4] = Clinical and behavioral signs in cynomolgus monkeys during the prednisone challenge studies; settings: study no. 1, 1.25, 5 and 20 mg/kg
Method: as §3, §4

[5] = mice, 1 h, read-out: Plasma 1 h % inh.
[6] = mice, 4 h, read-out: Plasma 4 h % inh.
[7] = mouse plasma (2% final volume), 1 h after 0.63 mg/kg oral
[8] = mouse plasma, 1 h after 2.5 mg/kg oral
[9] = mouse plasma, 1 h after 10 mg/kg oral
[10] = mouse plasma, 1 h after 40 mg/kg oral
[11] = mouse plasma, 4 h after 0.63 mg/kg oral
[12] = mouse plasma, 4 h after 2.5 mg/kg oral
[13] = mouse plasma, 4 h after 10 mg/kg oral
[14] = mouse plasma, 4 h after 40 mg/kg oral

Structure (SMILES) | % inhibition at 1 h (human 11β-HSD type 1 [1]; [7]) [%] | % inhibition at 1 h (human 11β-HSD type 1 [1]; [8]) [%] | % inhibition at 1 h (human 11β-HSD type 1 [1]; [9]) [%] | % inhibition at 1 h (human 11β-HSD type 1 [1]; [10]) [%] | % inhibition at 4 h (human 11β-HSD type 1 [1]; [11]) [%] | % inhibition at 4 h (human 11β-HSD type 1 [1]; [12]) [%] | % inhibition at 4 h (human 11β-HSD type 1 [1]; [13]) [%] | % inhibition at 4 h (human 11β-HSD type 1 [1]; [14]) [%] | % inhibition after 4 h (human 11β-HSD type 1 [3]; 4 h after 0.63 mg/kg oral) [%] | % inhibition after 4 h (human 11β-HSD type 1 [3]; 4 h after 2.5 mg/kg oral) [%] | % inhibition after 4 h (human 11β-HSD type 1 [3]; 4 h after 10 mg/kg oral) [%] | % inhibition after 4 h (human 11β-HSD type 1 [3]; 4 h after 40 mg/kg oral) [%] | inhibition of plasma prednisolone/prednisone ratio of AUC (30 minutes to 4 hours) (11β-HSD type 1; 20 mg/kg) | further results
CN1C(C(=O)c2ccc3ccccc3c2)=C(O)c2ccccc2S1(=O)=O [Compound 1, (4-hydroxy-2-methyl-1,1-dioxido-2H-benzo[e][1,2]thiazin-3-yl)(naphthalen-2-yl)methanone] | 40 | 64 | 81 | 93 | 31 | 60 | 81 | 94 | 8 | 36 | 63 | 79 | 34% | inhibition at 2.5 mg/kg (human 11β-HSD type 1 [1]; [5]): 65 ± 8%; inhibition at 2.5 mg/kg (human 11β-HSD type 1 [1]; [6]): 58 ± 5%; inhibition at 10 mg/kg (human 11β-HSD type 1 [1]; [5]): 75 ± 8%; inhibition at 10 mg/kg (human 11β-HSD type 1 [1]; [6]): 73 ± 4%; dose as of which plasma of treated mice inhibits 11β-HSD type 1 (human 11β-HSD type 1 [1]; mice, single oral administration): 0.63 mg/kg; Plasma 1 h ([2]; 2.5 mg/kg oral): 2598 ± 1478 ng/mL; Plasma 4 h ([2]; 2.5 mg/kg oral): 2205 ± 1250 ng/mL; Plasma 1 h ([2]; 10 mg/kg oral): 3675 ± 1781 ng/mL; Plasma 4 h ([2]; 10 mg/kg oral): 3823 ± 2011 ng/mL; animals that respond favorably to the treatment (11β-HSD type 1; 5 mg/kg): 60%; inhibition of the prednisolone/prednisone ratio in animals that respond favorably (11β-HSD type 1; 5 mg/kg): 28%; animals that respond favorably to the treatment (11β-HSD type 1; 20 mg/kg): 80%; inhibition of the prednisolone/prednisone ratio in animals that respond favorably (11β-HSD type 1; 20 mg/kg): 46%; dose as of which inhibition of 11β-HSD type 1 is significant and dose-dependent (11β-HSD type 1; doses 1.25, 5 and 20 mg/kg): 5 mg/kg; clinical or behavioral sign [4]: No particular clinical or behavioral sign
CN1C(C(=O)c2ccc(-c3ccc(C#N)cc3)cc2)=C([O-])c2ccccc2S1(=O)=O.[K+] [Compound 2K, potassium 3-(4′-cyanobiphenyl-4-carbonyl)-2-methyl-2H-benzo[e][1,2]thiazin-4-olate 1,1-dioxide, reference compound] | 26 | 63 | 84 | – | 29 | 65 | 86 | – | 17 | 46 | 72 | – | roughly 50% | activity on conversion of prednisone to prednisolone (11β-HSD type 1; doses below 20 mg/kg (1.25, 5 mg/kg)): inactive
C1CCc2nnc(C34CC5CC(CC(C5)C3)C4)n2CC1 [Compound 3, 3-(1-adamantyl)-6,7,8,9-tetrahydro-5H-[1,2,4]triazolo[4,3-a]azepine, reference compound] | – | – | 93 | 98 | – | – | 22 | 68 | – | – | 15 | 8 | – | % inhibition at 1 h (human 11β-HSD type 1 [1]; mouse plasma, 1 h after 80 mg/kg oral): 101%; % inhibition at 4 h (human 11β-HSD type 1 [1]; mouse plasma, 4 h after 80 mg/kg oral): 94%; % inhibition after 4 h (human 11β-HSD type 1 [3]; 4 h after 80 mg/kg oral): 13%
